Data: ChEMBL document CHEMBL6103592, “Discovery of novel thiazole-pleuromutilin derivatives with potent antibacterial activity” (Eur J Med Chem, 2025)
≈ marks a conversion by molar mass, not a printed value. Calls of active or inactive are those of the source. The rule behind the calls is not given here.

Legend:
[1] = tested on: Staphylococcus aureus; assay: (§1) Antibacterial efficacy against methicillin-resistant Staphylococcus aureus ATCC 43300 infected in cyclophosphamide-induced neutropenic systemic infection Kunming mouse model assessed as effect on survival rate at 20 mg/kg, iv pretreated with cyclophosphamide for 1 hr followed by compound addition and measured after 7 days; assay type: functional, organism-based; conditions: time 7.0 day
[2] = Acute toxicity in rat assessed as pathological changes in spleen at 2000 mg/kg, po measured for 14 days; assay type: organism-based; conditions: in vivo, 336 h, time 14 day
[3] = Acute toxicity in rat assessed as absolute liver weight at 2000 mg/kg, po administered for 7 days followed by readministration after 7 days and measured at 14 days (reference value: 8.43 +/- 0.43 g); assay type: organism-based; conditions: in vivo, 336 h, time 14 day
[4] = tested on: HepG2; assay: Cytotoxicity against human HepG2 cells assessed as cell viability at 200 micromol/L incubated for 24 hrs by CCK-8 assay relative to control; assay type: functional; conditions: HepG2, 24 h, dose 200 µmol/L, read-out: Activity
[5] = Acute toxicity in rat assessed as absolute kidney weight at 2000 mg/kg, po measured for 7 days (reference value: 1.60 +/- 0.16 g); assay type: organism-based; conditions: in vivo, 168 h, time 7 day
[6] = tested on: Staphylococcus aureus; assay: Bactericidal activity against methicillin-resistant Staphylococcus aureus ATCC 43300 at 1 times MIC incubated upto 24 hrs by time-kill assay; assay type: functional, organism-based
[7] = tested on: Staphylococcus aureus; assay: as §1, with “reduction in bacterial load in kidney” for “effect on survival rate”, “5” for “7”; assay type: functional, organism-based; conditions: time 5.0 day
[8] = Acute toxicity in rat assessed as absolute lung weight at 2000 mg/kg, po measured for 7 days (reference value: 1.12 +/- 0.07g); assay type: organism-based; conditions: in vivo, 168 h, time 7 day
[9] = tested on: Staphylococcus aureus; assay: Antibacterial activity against methicillin-resistant Staphylococcus aureus ATCC 43300 assessed as post antibiotic effect at 8 times MIC measured after 1 hr; assay type: functional
[10] = Acute toxicity in rat assessed as animal death at 2000 mg/kg, po measured for 14 days; assay type: organism-based; conditions: in vivo, 336 h, time 14 day
[11] = Acute toxicity in rat assessed as reduction in food intake at 2000 mg/kg, po measured for 14 days; assay type: organism-based; conditions: in vivo, 336 h, time 14 day
[12] = Cytotoxicity against human HEK293T cells assessed as cell viability incubated for 24 hrs by CCK-8 assay; assay type: toxicity, cell-based, HEK-293T
[13] = Acute toxicity in rat assessed as absolute kidney weight at 2000 mg/kg, po administered for 7 days followed by readministration after 7 days and measured at 14 days (reference value: 1.60 +/- 0.16 g); assay type: organism-based; conditions: in vivo, 336 h, time 14 day
[14] = Acute toxicity in rat assessed as reduction in water consumption at 2000 mg/kg, po measured for 14 days; assay type: organism-based; conditions: in vivo, 336 h, time 14 day
[15] = Acute toxicity in rat assessed as absolute lung weight at 2000 mg/kg, po administered for 7 days followed by readministration after 7 days and measured at 14 days (reference value: 1.12 +/- 0.07 g); assay type: organism-based; conditions: in vivo, 336 h, time 14 day
[16] = Acute toxicity in rat assessed as decrease in locomotor activity at 2000 mg/kg, po measured for 14 days; assay type: organism-based; conditions: in vivo, 336 h, time 14 day
[17] = tested on: Staphylococcus aureus; assay: Antibacterial activity against methicillin-resistant Staphylococcus aureus ATCC 43300 assessed as inhibition of visible bacterial growth incubated for 24 hrs by CLSI based broth microdilution method; assay type: functional
[18] = Acute toxicity in rat assessed as relative spleen weight at 2000 mg/kg, po administered for 7 days followed by readministration after 7 days and measured at 14 days (reference value: 0.27 +/- 0.02 %); assay type: organism-based; conditions: in vivo, 336 h, time 14 day
[19] = Acute toxicity in rat assessed as relative liver weight at 2000 mg/kg, po administered for 7 days followed by readministration after 7 days and measured at 14 days (reference value: 4.36 +/- 0.23 %); assay type: organism-based; conditions: in vivo, 336 h, time 14 day
[20] = Acute toxicity in rat assessed as absolute heart weight at 2000 mg/kg, po measured for 7 days (reference value: 0.77 +/- 0.12 g); assay type: organism-based; conditions: in vivo, 168 h, time 7 day
[21] = Acute toxicity in rat assessed as relative lung weight at 2000 mg/kg, po administered for 7 days followed by readministration after 7 days and measured at 14 days (reference value: 0.58 +/- 0.03 %); assay type: organism-based; conditions: in vivo, 336 h, time 14 day
[22] = Acute toxicity in rat assessed as absolute uterus weight at 2000 mg/kg, po measured for 7 days (reference value: 0.52 +/- 0.18 g); assay type: organism-based; conditions: in vivo, 168 h, time 7 day
[23] = tested on: HepG2; assay: Cytotoxicity against human HepG2 cells assessed as cell viability incubated for 24 hrs by CCK-8 assay; assay type: functional, cell-based; conditions: HepG2, 24 h
[24] = Acute toxicity in rat assessed as reduction in food intake at 2000 mg/kg, po measured at 24 hrs; assay type: organism-based; conditions: in vivo
[25] = tested on: Staphylococcus aureus; assay: Drug resistance, ratio of MIC for methicillin-resistant Staphylococcus aureus ATCC 43300 after 21 passages to MIC for methicillin-resistant Staphylococcus aureus ATCC 43300 during first exposure; assay type: functional
[26] = Acute toxicity in rat assessed as absolute heart weight at 2000 mg/kg, po administered for 7 days followed by readministration after 7 days and measured at 14 days (reference value: 0.77 +/- 0.12 g); assay type: organism-based; conditions: in vivo, 336 h, time 14 day
[27] = tested on: Staphylococcus aureus; assay: Antibacterial activity against methicillin-resistant Staphylococcus aureus ATCC 43300 assessed as post antibiotic effect at 1 times MIC measured after 1 hr; assay type: functional
[28] = Acute toxicity in rat assessed as relative kidney weight at 2000 mg/kg, po administered for 7 days followed by readministration after 7 days and measured at 14 days (reference value: 0.83 +/- 0.08%); assay type: organism-based; conditions: in vivo, 336 h, time 14 day

C=C[C@]1(C)C[C@@H](OC(=O)CSc2nc(OC(=O)c3ccc(C(C)(C)C)cc3)cs2)[C@]2(C)[C@H](C)CC[C@]3(CCC(=O)[C@H]32)[C@@H](C)[C@@H]1O
Activity [1]: Active
Activity [2]: Non-toxic
Activity [3]: 8.57 g
viability at 200 µM [4]: 94.3%
Activity [5]: 1.54 g
Activity [6]: Active
Activity [7]: inactive
Activity [8]: 1.13 g
PAE [9]: 2.27 h
Activity [10]: Non-toxic
Activity [11]: Toxic
IC50 at 24 h [12]: > 200 µM
Activity [13]: 1.63 g
Activity [14]: Toxic
Activity [15]: 1.28 g
Activity [16]: Non-toxic
MIC [17]: 0.25 µg/mL (≈ 0.382 µM)
Activity [18]: 0.25%
Activity [19]: 3.97%
Activity [20]: 0.75 g
Activity [21]: 0.59%
Activity [22]: 0.52 g
IC50 [23]: > 200 µM
Activity [24]: Non-toxic
Ratio [25]: 16
Activity [26]: 0.78 g
PAE [27]: 0.801 h
Activity [28]: 0.76%
